{"source": "patent US20240261417A1", "about": "“SOS1 DEGRADING AGENT AND PREPARATION METHOD THEREFOR AND APPLICATION THEREOF” (SHANGHAI LEADINGTAC PHARMACEUTICAL CO. LTD., priority 2021, published 2024)", "assay_type_in_all_cases": "cell-based", "details_in_all_cases": "7 days, CTG", "key": {"[1]": {"test_system": "KRAS G12C mutant human non-small cell lung cancer cells NCI-H358", "assay": "3D cell proliferation inhibition assay, NCI-H358", "procedure": "(§1) Inhibition of 3D cell proliferation by the compounds was investigated on KRAS G12C mutant human non-small cell lung cancer cells NCI-H358 (ATCC or Stem Cell Bank, Chinese Academy of Sciences), KRAS G12D mutant human metastatic pancreatic adenocarcinoma cells AsPC-1 (ATCC), KRAS G12V mutant human lung adenocarcinoma cells NCI-H441 (ATCC), and KRAS G13D mutant human colorectal adenocarcinoma epithelial cells DLD-1 (ATCC). The specific procedures were as follows:\n(§2) 200 nL of compound solution diluted in a gradient was added to corresponding microwells of a 384-well low-adsorption microwell plate (Corning, 3657) using an Echo sonic pipetting system (Labcyte, Echo 550), so that the final concentration of the test compound in the reaction system was in a range of 20000 nM-0.008 nM. Then 40 μL of cells at a certain density were added to the corresponding microplate. In addition to test wells for the test compounds, both a DMSO control well and a medium control well were set, with the DMSO control well containing DMSO and cells and the medium well containing only medium. After sample loading, the plate cover was applied, and the 384-well low-adsorption microplate was incubated in an incubator at 37° C. with 5% carbon dioxide for 7 days. After 7 days, the microplate was taken out, and 40 μL of CTG reagent (Promega, G9683) was added to each well. The plate was incubated at room temperature for 30 min and read on a microplate reader EnVision using the chemiluminescence program. The inhibition rates of the compounds at each concentration were calculated by the formula for the percentage inhibition of cell proliferation: inhibition rate %=(mean value of DMSO control group−single concentration reading value of compound)/(mean value of DMSO control group−mean value of medium control group)×100, and then nonlinear curve fitting was performed by GraphPad Prism 8 in the logarithmic concentration-inhibition rate to obtain the IC50 values of the compounds."}, "[2]": {"test_system": "KRAS G12V mutant human lung adenocarcinoma cells NCI-H441", "assay": "3D cell proliferation inhibition assay, NCI-H441", "procedure": "as §1, §2"}, "[3]": {"test_system": "KRAS G13D mutant human colorectal adenocarcinoma epithelial cells DLD-1", "assay": "3D cell proliferation inhibition assay, DLD-1", "procedure": "as §1, §2"}, "[4]": {"test_system": "KRAS G12D mutant human metastatic pancreatic adenocarcinoma cells AsPC-1", "assay": "3D cell proliferation inhibition assay, AsPC-1", "procedure": "as §1, §2"}}, "data": [{"smiles": "COc1cc2nc(C)nc(N[C@H](C)c3cc(N)cc(C(F)(F)F)c3)c2cc1C1CCC(C(=O)N2CCN(CC3CCC4(CC3)CCN(C(=O)c3ccc(OC)c(N5CCC(=O)NC5=O)c3)CC4)CC2)CC1", "note": "(stereo partly drawn) [Example 20, 1-(5-(9-((4-((1R,4R)-4-(4-(((R)-1-(3-amino-5-(trifluoromethyl)phenyl)ethyl)amino)-7-methoxy-2-methylquinazolin-6-yl)cyclohexane-1-carbonyl)piperazin-1-yl)methyl)-3-azaspiro[5.5]undecane-3-carbonyl)-2-methoxyphenyl)dihydropyrimidine-2,4(1H,3H)-dione]", "values": [{"measurement": "IC50", "setting": "[1]", "value": "≤ 15", "unit": "nM"}, {"measurement": "IC50", "setting": "[2]", "value": "≤ 15", "unit": "nM"}, {"measurement": "IC50", "setting": "[3]", "value": "15 to 30", "unit": "nM"}, {"measurement": "IC50", "setting": "[4]", "value": "50 to 100", "unit": "nM"}]}]}
